# Columns and labels:
# AR / CBP ternary complex = AR / CBP ternary complex (Homo sapiens, UniProt P10275+Q92793); assay: Ternary complex formation assay (sandwich ELISA, AR capture, CBP antibody detection) in VCaP cell lysates; format: cell-based; details: treated 1.5 hours, rabbit CBP or p300 antibody detection, average, read-out: Average Ternary Complex
# How it was run: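 VCaP cells in 5% charcoal-stripped FBS were cultured ≥3 days and then given bifunctional compound for 1.5 h. Lysates went onto AR-antibody-coated plates. Bound CBP (or p300) was detected with a rabbit antibody plus HRP anti-rabbit, using QuantaRed chemifluorescence (ex 570/em 585) read immediately, at 5 min and at 15 min.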
# VCaP cells = assay: VCaP growth inhibition assay (CTG); format: cell-based; details: Homo sapiens, 216 h, 30 pM R1881, 9 days
# How it was run: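 VCaP cells in phenol red-free DMEM with 5% charcoal-stripped serum were stimulated with 30 pM R1881 (final) and treated with compound from 100 nM to 10 fM final (1:5 dilutions) for 9 days at 37 °C. Viability was read by CellTiter-Glo luminescence, and IC50 came from 4-parameter logistic fits.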
# AR / CBP ternary complex, sequence (P10275 whole entry): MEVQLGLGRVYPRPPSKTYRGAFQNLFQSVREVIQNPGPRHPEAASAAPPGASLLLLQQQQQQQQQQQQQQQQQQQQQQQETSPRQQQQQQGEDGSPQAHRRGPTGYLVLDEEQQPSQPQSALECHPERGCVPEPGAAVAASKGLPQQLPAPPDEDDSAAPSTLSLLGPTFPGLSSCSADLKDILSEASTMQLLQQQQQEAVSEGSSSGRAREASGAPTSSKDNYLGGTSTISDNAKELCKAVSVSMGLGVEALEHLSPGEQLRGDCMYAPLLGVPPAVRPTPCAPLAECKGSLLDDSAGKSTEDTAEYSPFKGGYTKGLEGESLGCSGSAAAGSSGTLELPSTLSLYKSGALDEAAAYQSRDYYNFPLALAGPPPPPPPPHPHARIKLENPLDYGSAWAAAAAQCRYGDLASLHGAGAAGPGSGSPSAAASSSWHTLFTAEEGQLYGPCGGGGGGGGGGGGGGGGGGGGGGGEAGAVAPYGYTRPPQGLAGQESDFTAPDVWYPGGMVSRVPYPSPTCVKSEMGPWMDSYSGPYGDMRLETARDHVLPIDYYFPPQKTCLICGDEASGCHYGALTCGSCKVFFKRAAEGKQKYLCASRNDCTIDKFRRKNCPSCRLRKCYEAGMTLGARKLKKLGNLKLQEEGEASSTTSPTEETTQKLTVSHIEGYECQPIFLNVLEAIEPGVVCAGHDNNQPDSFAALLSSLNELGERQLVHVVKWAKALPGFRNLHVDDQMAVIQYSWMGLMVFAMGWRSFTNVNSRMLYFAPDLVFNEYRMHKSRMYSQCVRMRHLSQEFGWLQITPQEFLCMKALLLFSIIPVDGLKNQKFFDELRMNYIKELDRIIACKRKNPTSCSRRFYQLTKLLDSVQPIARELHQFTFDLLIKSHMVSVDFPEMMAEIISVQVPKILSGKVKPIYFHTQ
# AR / CBP ternary complex, sequence (Q92793 2-2442): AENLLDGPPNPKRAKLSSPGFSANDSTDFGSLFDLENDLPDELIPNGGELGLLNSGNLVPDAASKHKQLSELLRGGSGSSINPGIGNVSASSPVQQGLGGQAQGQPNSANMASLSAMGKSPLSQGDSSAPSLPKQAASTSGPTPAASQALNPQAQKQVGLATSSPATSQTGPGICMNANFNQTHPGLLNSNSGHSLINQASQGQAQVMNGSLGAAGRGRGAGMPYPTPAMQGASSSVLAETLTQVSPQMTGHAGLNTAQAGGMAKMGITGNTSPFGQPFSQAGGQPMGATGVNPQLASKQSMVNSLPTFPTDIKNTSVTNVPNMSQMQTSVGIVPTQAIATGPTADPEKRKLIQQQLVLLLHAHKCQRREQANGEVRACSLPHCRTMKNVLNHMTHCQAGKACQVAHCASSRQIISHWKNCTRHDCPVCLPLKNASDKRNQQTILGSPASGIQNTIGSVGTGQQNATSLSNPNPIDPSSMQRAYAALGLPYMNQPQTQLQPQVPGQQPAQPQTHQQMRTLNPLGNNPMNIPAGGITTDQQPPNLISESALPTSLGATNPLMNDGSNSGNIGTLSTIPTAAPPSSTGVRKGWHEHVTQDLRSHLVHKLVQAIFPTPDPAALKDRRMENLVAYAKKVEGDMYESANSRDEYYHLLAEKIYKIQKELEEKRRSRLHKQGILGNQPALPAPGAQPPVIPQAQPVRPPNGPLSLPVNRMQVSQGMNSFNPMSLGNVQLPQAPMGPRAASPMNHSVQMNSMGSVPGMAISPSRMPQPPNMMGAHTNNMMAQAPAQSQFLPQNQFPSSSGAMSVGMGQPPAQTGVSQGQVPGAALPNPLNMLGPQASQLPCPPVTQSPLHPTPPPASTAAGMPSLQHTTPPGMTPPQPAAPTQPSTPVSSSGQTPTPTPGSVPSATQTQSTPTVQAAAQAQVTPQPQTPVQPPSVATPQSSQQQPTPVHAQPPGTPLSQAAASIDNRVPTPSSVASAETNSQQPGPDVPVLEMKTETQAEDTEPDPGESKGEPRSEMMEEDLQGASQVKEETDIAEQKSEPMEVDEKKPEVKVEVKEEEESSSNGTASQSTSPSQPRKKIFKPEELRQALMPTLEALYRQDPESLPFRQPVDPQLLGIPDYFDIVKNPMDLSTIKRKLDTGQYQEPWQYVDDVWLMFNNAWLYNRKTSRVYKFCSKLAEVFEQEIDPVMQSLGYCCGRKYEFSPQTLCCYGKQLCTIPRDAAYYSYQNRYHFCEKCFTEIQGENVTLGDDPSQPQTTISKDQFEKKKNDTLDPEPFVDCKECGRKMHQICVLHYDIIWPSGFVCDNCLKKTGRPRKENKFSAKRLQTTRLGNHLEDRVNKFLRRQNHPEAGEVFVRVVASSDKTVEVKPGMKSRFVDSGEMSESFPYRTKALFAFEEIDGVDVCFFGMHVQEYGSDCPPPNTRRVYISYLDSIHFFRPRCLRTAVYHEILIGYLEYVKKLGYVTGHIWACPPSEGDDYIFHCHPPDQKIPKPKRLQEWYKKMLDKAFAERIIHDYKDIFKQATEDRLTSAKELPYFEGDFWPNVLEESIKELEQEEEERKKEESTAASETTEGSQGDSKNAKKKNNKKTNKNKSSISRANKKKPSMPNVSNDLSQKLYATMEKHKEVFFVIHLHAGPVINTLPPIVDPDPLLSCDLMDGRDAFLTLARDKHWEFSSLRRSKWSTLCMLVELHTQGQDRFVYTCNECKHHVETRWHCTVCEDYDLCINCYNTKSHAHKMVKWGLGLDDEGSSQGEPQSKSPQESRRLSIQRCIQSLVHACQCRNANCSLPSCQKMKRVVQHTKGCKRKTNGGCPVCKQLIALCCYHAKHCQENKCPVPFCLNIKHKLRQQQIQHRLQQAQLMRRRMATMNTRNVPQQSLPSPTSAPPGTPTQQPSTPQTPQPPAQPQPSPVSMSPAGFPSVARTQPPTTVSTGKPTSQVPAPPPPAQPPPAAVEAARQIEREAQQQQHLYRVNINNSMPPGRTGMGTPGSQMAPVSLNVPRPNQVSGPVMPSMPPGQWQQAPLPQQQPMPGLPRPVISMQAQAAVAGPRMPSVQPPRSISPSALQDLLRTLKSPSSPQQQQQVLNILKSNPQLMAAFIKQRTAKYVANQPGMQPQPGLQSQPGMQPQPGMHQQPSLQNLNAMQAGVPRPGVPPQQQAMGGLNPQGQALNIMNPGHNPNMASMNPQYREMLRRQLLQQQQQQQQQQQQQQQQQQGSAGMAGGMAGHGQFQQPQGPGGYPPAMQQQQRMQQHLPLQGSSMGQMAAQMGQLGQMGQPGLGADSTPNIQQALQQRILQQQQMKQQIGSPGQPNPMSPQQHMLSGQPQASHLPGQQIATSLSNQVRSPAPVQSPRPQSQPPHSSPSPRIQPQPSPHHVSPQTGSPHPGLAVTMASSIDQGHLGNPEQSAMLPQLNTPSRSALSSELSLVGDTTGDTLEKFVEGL
EC50 (AR / CBP ternary complex) [nM],IC50 (VCaP cells) [nM],SMILES
< 1,0.1 to 1,"CC(=O)N1CCc2c(c(-c3cccc4cc(-c5ccc(CCC6CCN(c7ccc(C(=O)N[C@H]8CC[C@H](Oc9ccc(C#N)c(Cl)c9)CC8)cn7)CC6)cc5)ncc34)nn2C2CCOCC2)C1 [Compound 166, 6-[4-[2-[4-[8-(5-acetyl-1-tetrahydropyran-4-yl-6,7-dihydro-4H-pyrazolo[4,3-c]pyridin-3-yl)-3-isoquinolyl]phenyl]ethyl]-1-piperidyl]-N-[4-(3-chloro-4-cyano-phenoxy)cyclohexyl]pyridine-3-carboxamide]"
> 100,0.1 to 1,"Cc1cc2c(N3CCN(C)c4cc(-c5cnn(C)c5)c(C#N)cc43)cc(OCCC3CCN(c4ccc(C(=O)N[C@H]5CC[C@H](Oc6ccc(C#N)c(Cl)c6)CC5)nn4)CC3)cc2n(C)c1=O [Compound 38, N-[4-(3-chloro-4-cyano-phenoxy)cyclohexyl]-6-[4-[2-[[5-[7-cyano-4-methyl-6-(1-methylpyrazol-4-yl)-2,3-dihydroquinoxalin-1-yl]-1,3-dimethyl-2-oxo-7-quinolyl]oxy]ethyl]-1-piperidyl]pyridazine-3-carboxamide]"
< 1,≤ 0.1,"CC(=O)N1CCc2c(c(N3CCCc4cc(-c5cnn(C)c5)c(C(F)F)cc43)nn2C2CCN(CC3CCN(c4ccc(C(=O)N[C@H]5CC[C@H](Oc6ccc(C#N)c(Cl)c6)CC5)cn4)CC3)CC2)C1 [Compound 18, 6-[4-[[4-[5-acetyl-3-[7-(difluoromethyl)-6-(1-methylpyrazol-4-yl)-3,4-dihydro-2H-quinolin-1-yl]-6,7-dihydro-4H-pyrazolo[4,3-c]pyridin-1-yl]-1-piperidyl]methyl]-1-piperidyl]-N-[4-(3-chloro-4-cyano-phenoxy)cyclohexyl]pyridine-3-carboxamide]"
< 1,0.1 to 1,"CC(=O)N1CCc2c(c(N3CCCc4cc(-c5cnn(C)c5)c(C(F)F)cc43)nn2C2CCN(CC3(C)CCN(c4ccc(C(=O)N[C@H]5CC[C@H](Oc6ccc(C#N)c(Cl)c6)CC5)nn4)CC3)CC2)C1 [Compound 100, 6-[4-[[4-[5-acetyl-3-[7-(difluoromethyl)-6-(1-methylpyrazol-4-yl)-3,4-dihydro-2H-quinolin-1-yl]-6,7-dihydro-4H-pyrazolo[4,3-c]pyridin-1-yl]-1-piperidyl]methyl]-4-methyl-1-piperidyl]-N-[4-(3-chloro-4-cyano-phenoxy)cyclohexyl]pyridazine-3-carboxamide]"
< 1,0.1 to 1,"CC(=O)N1CCc2c(c(N3CCCc4cc(-c5cnn(C)c5)c(C(F)F)cc43)nn2[C@H]2CC[C@]3(CCN(C4CN(c5ccc(C(=O)N[C@H]6CC[C@H](Oc7ccc(C#N)c(Cl)c7)CC6)nn5)C4)C3)CC2)C1 [Compound 262, 6-[3-[8-[5-acetyl-3-[7-(difluoromethyl)-6-(1-methylpyrazol-4-yl)-3,4-dihydro-2H-quinolin-1-yl]-6,7-dihydro-4H-pyrazolo[4,3-c]pyridin-1-yl]-2-azaspiro[4.5]decan-2-yl]azetidin-1-yl]-N-[4-(3-chloro-4-cyano-phenoxy)cyclohexyl]pyridazine-3-carboxamide]"
< 1,0.1 to 1,"CC(=O)N1CCc2c(c(N3CCCc4nc(-c5ccc(CCC6CCN(c7ccc(C(=O)N[C@H]8CC[C@H](Oc9ccc(C#N)c(Cl)c9)CC8)nn7)CC6)nc5)ncc43)nn2C2CCOCC2)C1 [Compound 72, 6-[4-[2-[5-[5-(5-acetyl-1-tetrahydropyran-4-yl-6,7-dihydro-4H-pyrazolo[4,3-c]pyridin-3-yl)-7,8-dihydro-6H-pyrido[3,2-d]pyrimidin-2-yl]-2-pyridyl]ethyl]-1-piperidyl]-N-[4-(3-chloro-4-cyano-phenoxy)cyclohexyl]pyridazine-3-carboxamide]"
< 1,≤ 0.1,"CC(=O)N1CCc2c(c(N3CCCc4cc(-c5cnn(C)c5)c(C(F)F)cc43)nn2[C@H]2CC[C@@H](OC3CCN(c4ccc(C(=O)N[C@H]5CC[C@H](Oc6ccc(C#N)c(Cl)c6)CC5)nn4)CC3)CC2)C1 [Compound 204, 6-[4-[4-[5-acetyl-3-[7-(difluoromethyl)-6-(1-methylpyrazol-4-yl)-3,4-dihydro-2H-quinolin-1-yl]-6,7-dihydro-4H-pyrazolo[4,3-c]pyridin-1-yl]cyclohexoxy]-1-piperidyl]-N-[4-(3-chloro-4-cyano-phenoxy)cyclohexyl]pyridazine-3-carboxamide]"
< 1,0.1 to 1,"CC(=O)N1CCc2c(c(N3CCCc4cc(-c5cnn(C)c5)c(C(F)F)cc43)nn2[C@H]2CC[C@H](CC3CCN(c4ccc(C(=O)N[C@H]5CC[C@H](Oc6ccc(C#N)c(Cl)c6)CC5)nn4)CC3)CC2)C1 [Compound 145, 6-[4-[[4-[5-acetyl-3-[7-(difluoromethyl)-6-(1-methylpyrazol-4-yl)-3,4-dihydro-2H-quinolin-1-yl]-6,7-dihydro-4H-pyrazolo[4,3-c]pyridin-1-yl]cyclohexyl]methyl]-1-piperidyl]-N-[4-(3-chloro-4-cyano-phenoxy)cyclohexyl]pyridazine-3-carboxamide]"
< 1,≤ 0.1,CC(=O)N1CCc2c(c(N3CCCc4cc(-c5cnn(C)c5)c(C(F)F)cc43)nn2[C@H]2CC[C@H](N3CC4(CC(Oc5ccc(C(=O)N[C@H]6CC[C@H](Oc7ccc(C#N)c(Cl)c7)CC6)nn5)C4)C3)CC2)C1 [Compound 249]
< 1,≤ 0.1,"Cc1cc2c(N3CCN(C)c4cc(-c5cnn(C)c5)c(C#N)cc43)cc(OCCOC3CCN(c4ccc(C(=O)N[C@H]5CC[C@H](Oc6ccc(C#N)c(Cl)c6)CC5)nn4)CC3)cc2n(C)c1=O [Compound 39, N-[4-(3-chloro-4-cyano-phenoxy)cyclohexyl]-6-[4-[2-[[5-[7-cyano-4-methyl-6-(1-methylpyrazol-4-yl)-2,3-dihydroquinoxalin-1-yl]-1,3-dimethyl-2-oxo-7-quinolyl]oxy]ethoxy]-1-piperidyl]pyridazine-3-carboxamide]"
< 1,0.1 to 1,CC(=O)N1CCc2c(c(-c3cccc4cc(-c5cnn(C6CCN(C7CCN(c8ccc(C(=O)N[C@H]9CC[C@H](Oc%10ccc(C#N)c(Cl)c%10)CC9)nn8)CC7)CC6)c5)ncc34)nn2C2CCOCC2)C1 [Compound 183]
1 to 10,0.1 to 1,"CC(=O)N1CCc2c(c(N3CCCc4cc(C#N)ccc43)nn2[C@H]2C[C@H](CC3CCN(c4ccc(C(=O)N[C@H]5CC[C@H](Oc6ccc(C#N)c(Cl)c6)CC5)nn4)CC3)C2)C1 [Compound 77, 6-[4-[[3-[5-acetyl-3-(6-cyano-3,4-dihydro-2H-quinolin-1-yl)-6,7-dihydro-4H-pyrazolo[4,3-c]pyridin-1-yl]cyclobutyl]methyl]-1-piperidyl]-N-[4-(3-chloro-4-cyano-phenoxy)cyclohexyl]pyridazine-3-carboxamide]"
< 1,0.1 to 1,"CC(=O)N1CCc2c(c(N3CCCc4cc(-c5cnn(C)c5)c(C(F)F)cc43)nn2[C@H]2CC[C@]3(CCCN(C4CN(c5ccc(C(=O)N[C@H]6CC[C@H](Oc7ccc(C#N)c(Cl)c7)CC6)nn5)C4)C3)CC2)C1 [Compound 268, 6-[3-[9-[5-acetyl-3-[7-(difluoromethyl)-6-(1-methylpyrazol-4-yl)-3,4-dihydro-2H-quinolin-1-yl]-6,7-dihydro-4Hpyrazolo[4,3-c]pyridin-1-yl]-2-azaspiro[5.5]undecan-2-yl]azetidin-1-yl]-N-[4-(3-chloro-4-cyanophenoxy)cyclohexyl]pyridazine-3-carboxamide]"
< 1,0.1 to 1,"CC(=O)N1CCc2c(c(N3CCCc4cc(-c5cnn(C)c5)c(C(F)F)cc43)nn2C2CCN([C@@H]3CCN(c4ccc(C(=O)N[C@H]5CC[C@H](Oc6ccc(C#N)c(Cl)c6)CC5)nn4)C3)CC2)C1 [Compound 222, 6-[(3R)-3-[4-[5-acetyl-3-[7-(difluoromethyl)-6-(1-methylpyrazol-4-yl)-3,4-dihydro-2H-quinolin-1-yl]-6,7-dihydro-4H-pyrazolo[4,3-c]pyridin-1-yl]-1-piperidyl]pyrrolidin-1-yl]-N-[4-(3-chloro-4-cyano-phenoxy)cyclohexyl] pyridazine-3-carboxamide]"
< 1,≤ 0.1,"CC(=O)N1CCc2c(c(N3CCCc4cc(-c5cnn(C)c5)c(C(F)F)cc43)nn2C2CCN(CC3CCN(c4ccc(C(=O)N[C@H]5CC[C@H](Oc6ccc(C#N)c(Cl)c6)CC5)nn4)CC3(C)C)CC2)C1 (some centres unmarked) [Compound 230, 6-[4-[[4-[5-acetyl-3-[7-(difluoromethyl)-6-(1-methylpyrazol-4-yl)-3,4-dihydro-2H-quinolin-1-yl]-6,7-dihydro-4H-pyrazolo[4,3-c]pyridin-1-yl]-1-piperidyl]methyl]-3,3-dimethyl-1-piperidyl]-N-[4-(3-chloro-4-cyano-phenoxy)cyclohexyl]pyridazine-3-carboxamide]"
< 1,≤ 0.1,"CC(=O)N1CCc2c(c(N3CCCc4cc(-c5cnn(C)c5)c(C(F)F)cc43)nn2C2CCN(C3CC4(CCC(Oc5ccc(C(=O)N[C@H]6CC[C@H](Oc7ccc(C#N)c(Cl)c7)CC6)nn5)CC4)C3)CC2)C1 (some centres unmarked) [Compound 252, 6-[2-[4-[5-acetyl-3-[7-(difluoromethyl)-6-(1-methylpyrazol-4-yl)-3,4-dihydro-2H-quinolin-1-yl]-6,7-dihydro-4H-pyrazolo[4,3-c]pyridin-1-yl]-1-piperidyl]spiro[3.5]nonan-7-yl]oxy-N-[4-(3-chloro-4-cyano-phenoxy)cyclohexyl]pyridazine-3-carboxamide]"

# — patent US20250136578A1 (Kolm Therapeutics Inc., priority 2023, published 2025)
